This note sets out measurements from PMC6020753 (Chemical Science, 2016).

For the assay, the target named is T1, NP1 (Rhodnius prolixus, UniProt Q26239).
T1 construct: recombinant in E. coli BL21(DE3), reconstituted ferriheme b protein, two Cys-Cys disulfides
Nature of the assay: X-band EPR of nitrite complex. The settings on record: 300 mM NaNO2, 100 mM HEPES pH 7.2, 25% glycerol, 10 K; heme iron ligand. In kind it is binding.

T1 sequence (Q26239 24-207): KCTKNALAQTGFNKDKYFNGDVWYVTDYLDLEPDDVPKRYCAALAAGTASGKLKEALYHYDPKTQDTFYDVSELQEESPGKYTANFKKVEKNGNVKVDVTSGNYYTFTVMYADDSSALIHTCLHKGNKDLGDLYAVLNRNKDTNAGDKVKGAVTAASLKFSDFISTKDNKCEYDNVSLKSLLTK

For `O=NO` [nitrite], the “X-band EPR of nitrite complex” value was “NP1[NO2^–] also has a HALS signal with a similar ratio”.
